Laboratory results published in patent US20220378923A1, “BET DEGRADER” (KYOWA KIRIN CO., LTD., priority 2019, published 2022).
Like-named read-outs stand apart in the source and are kept apart here.

Assays:
[1] = tested on: MYC mRNA expression in SU-DHL-4 cells; assay: Suppressive effect on MYC mRNA expression (Test Example 2); format: cell-based, human; conditions: test compound 100 nmol/L, 6 hours, qRT-PCR corrected by ACTB, GAPDH; for inhibition at 0.1 µM: Homo sapiens, HPRT1, read-out: Suppression Rate of MYC mRNA Expression (%); for Suppression Rate of MYC mRNA Expression (%): HPRT1
Description: The cells were passaged twice a week at a volume of 20-40 mL so as to maintain a cell concentration of 1×10^6 cells/mL or less. The cultured SU-DHL-4 cells were seeded at 6×10^5 cells/well in a transparent 6-well plate (Code No. 140675, Thermo Fisher Scientific). After seeding, the cells were precultured at 37° C. in a carbon dioxide gas incubator for 18 to 25 hours. […] At this time, the final concentration of DMSO was adjusted to be 0.1 vol %. After adding the test compound, the cells were cultured at 37° C. in a carbon dioxide gas incubator for 6 hours. Then, the cells were collected by centrifugation and used for extraction of mRNA. mRNA extraction from cells was performed using Maxwell® 16 LEV simplyRNA Purification Kits (Code No. AS1270, Promega). The mRNA recovery protocol was performed according to the manufacturer's recommended protocol attached to the kit. […] The cDNA conversion was performed, according to the manufacturer's recommended protocol attached to the kit, in 0.020 mL of the reaction solution, and GeneAmp® PCR System 9700 (Applied Biosystems) was used. The cDNA-converted sample was diluted 10-fold by adding 0.180 mL of RNase Free Water (Code No. 10977-023, Thermo Fisher Scientific) and used for quantitative real-time polymerase chain reaction (qRT-PCR). For the calibration curve of qRT-PCR, 0.08 mL of RNase Free Water was added to a cDNA sample using DMSO as a test compound for 5-fold dilution. Further, two 5-fold dilutions were prepared stepwise, and these three samples were used as the calibration curve samples. The following reagents were used for qRT-PCR: TaqMan Gene Expression Assays, Inventoried (Primer probe: Code No. 4331182, Thermo Fisher Scientific, Assay ID: (i) MYC: Hs00153408_m1, (ii) ACTB: Hs01060665_g1, (iii) GAPDH: Hs04420697_g1, (iv) HPRT1: […] Universal PCR Master Mix, no AmpEraseR UNG (Master Mix: Code No. 4367846, Thermo Fisher Scientific). Primer probe (0.001 mL), Master Mix (0.010 mL), water (0.004 mL) and the diluted cDNA sample (0.005 mL) were mixed, and qRT-PCR analysis was performed. For qRT-PCR analysis, QuantStudio 7 Flex (Thermo Fisher Scientific) or 7500 Fast Real-Time PCR (Applied Biosystems) was used to measure in Fast mode and analyze. […] Corrected MYC expression=A/B • A: MYC expression level • B: Geometric mean of expression levels of ACTB, GAPDH and HPRT1 Using the corrected values, the suppression rate of MYC expression for the wells to which the test compound was not added was calculated by the following formula. […] Corrected MYC expression level in a well containing test compound • D: Corrected MYC expression level in a well to which test compound was not added

[2] = tested on: SU-DHL-4 cells; assay: Inhibitory effect on cell viability in SU-DHL-4 cell line (Test Example 1); format: cell-based, human; conditions: 72 hours; for IC50: SU-DHL-4 (wild type) cells, calculated using the measurement results of test example 1, read-out: SU-DHL-4 WT IC50; for IC90: SU-DHL-4 cells, Cell Counting Kit-8, concentration showing 90% inhibition of cell viability, read-out: SU-DHL-4 Cell Viability Inhibition Rate IC90
In short: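 SU-DHL-4 cells were grown at 37° C. under 5% CO2 in RPMI1640 with 10 vol % heat-inactivated FBS plus penicillin/streptomycin, seeded and precultured for 18 to 25 hours, then exposed to test compound at 0.1 vol % DMSO for 72 hours. Viability was read with Cell Counting Kit-8 by absorbance at 450 nm.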

| SMILES | inhibition at 0.1 µM [1] [%] | IC50 ([2]; Homo sapiens) [nM] | Suppression Rate of MYC mRNA Expression (%) [1] [%] | IC50 [2] [nM] | IC90 [2] [nM] | IC90 ([2]; Homo sapiens) [nM] |
| --- | --- | --- | --- | --- | --- | --- |
| CCC(=O)N1c2ccccc2[C@H](Nc2ccc(C(=O)NCc3cn(-c4ccc(N[C@@H]5C[C@H](C)N(C(=O)CC)c6ccccc65)cc4)nn3)cc2)C[C@@H]1C [Compound 3a, 4-{[(2S,4R)-2-Methyl-1-propionyl-1,2,3,4-tetrahydroquinolin-4-yl]amino}-N-{[1-(4-{[(2S,4R)-2-methyl-1-propionyl-1,2,3,4-tetrahydroquinolin-4-yl]amino}phenyl)-1H-1,2,3-triazol-4-yl]methyl}benzamide] | 98.1 | 0.025 | – | – | – | – |
| CCC(=O)N1c2ccccc2[C@H](Nc2ccc(NC(=O)CNCC(=O)Nc3ccc(N[C@@H]4C[C@H](C)N(C(=O)CC)c5ccccc54)cc3)cc2)C[C@@H]1C [Compound 5d, 2,2′-Azanediylbis(N-(4-(((2S,4R)-2-methyl-1-propionyl-1,2,3,4-tetrahydroquinolin-4-yl)amino)phenyl)acetamide)] | 97.5 | 0.31 | – | – | – | – |
| CCC(=O)N1c2ccccc2[C@H](Nc2ccc(-n3cc(CNC(=O)N4CCC(N[C@@H]5C[C@H](C)N(C(=O)CC)c6ccccc65)CC4)nn3)cc2)C[C@@H]1C (relative stereo) [Compound 10b, 4-(((2S*,4R*)-2-Methyl-1-propionyl-1,2,3,4-tetrahydroquinolin-4-yl)amino)-N-((1-(4-(((2S,4R)-2-methyl-1-propionyl-1,2,3,4-tetrahydroquinolin-4-yl)amino)phenyl)-1H-1,2,3-triazol-4-yl)methyl)piperidine-1-carboxamide] | 96.6 | 0.34 | – | – | – | – |
| CCC(=O)N1c2ccccc2[C@H](Nc2ccc(C(=O)N3CC(C(=O)N[C@H]4CC[C@H](N[C@@H]5C[C@H](C)N(C(=O)CC)c6ccccc65)CC4)C3)cc2)C[C@@H]1C [Compound 8r, 1-(4-(((2S,4R)-2-Methyl-1-propionyl-1,2,3,4-tetrahydroquinolin-4-yl)amino)benzoyl)-N-((1R,4R)-4-(((2S,4R)-2-methyl-1-propionyl-1,2,3,4-tetrahydroquinolin-4-yl)amino)cyclohexyl)azetidine-3-carboxamide] | – | – | 96.7 | 0.3 | 0.47 | – |
| CCC(=O)N1c2ccccc2[C@H](Nc2ccc(-c3cnn(CC(=O)Nc4ccc(C5=NCc6nnc(C)n6-c6sc(C)c(C)c65)cc4)c3)cc2)C[C@@H]1C [Compound 14a, 2-(4-(4-(((2S,4R)-2-Methyl-1-propionyl-1,2,3,4-tetrahydroquinolin-4-yl)amino)phenyl)-1H-pyrazol-1-yl)-N-(4-(2,3,9-trimethyl-6H-thieno[3,2-f][1,2,4]triazolo[4,3-a][1,4]diazepin-4-yl)phenyl)acetamide] | 97.1 | 0.017 | – | – | – | – |
| CCC(=O)N1c2ccccc2[C@H](Nc2ccc(NC(=O)CCCC(=O)Nc3cccc(Oc4ccccc4-c4cn(C)c(=O)cc4OC)c3)cc2)C[C@@H]1C [Compound 16m, N^1-(3-(2-(4-Methoxy-1-methyl-6-oxo-1,6-dihydropyridin-3-yl)phenoxy)phenyl)-N5-(4-(((2S,4R)-2-methyl-1-propionyl-1,2,3,4-tetrahydroquinolin-4-yl)amino)phenyl)glutaramide] | 97.1 | 0.62 | – | – | – | 1.85 |
| Cc1sc2c(c1C)C(c1ccc(C(=O)N3CCC(NC(=O)c4ccc(C5=N[C@@H](CC(=O)OC(C)(C)C)c6nnc(C)n6-c6sc(C)c(C)c65)cc4)CC3)cc1)=NCc1nnc(C)n1-2 [Compound 14p, tert-Butyl (S)-2-(2,3,9-trimethyl-4-(4-((1-(4-(2,3,9-trimethyl-6H-thieno[3,2-f][1,2,4]triazolo[4,3-a][1,4]diazepin-4-yl)benzoyl)piperidin-4-yl)carbamoyl)phenyl)-6H-thieno[3,2-f][1,2,4]triazolo[4,3-a][1,4]diazepin-6-yl)acetate] | 97.6 | 1 | – | – | – | – |
| CCC(=O)N1c2ccccc2[C@H](Nc2ccc(NC(=O)COCC(=O)Nc3ccc(C4=NCc5nnc(C)n5-c5sc(C)c(C)c54)cc3)cc2)C[C@@H]1C [Compound 14d, N-(4-(((2S,4R)-2-Methyl-1-propionyl-1,2,3,4-tetrahydroquinolin-4-yl)amino)phenyl)-2-(2-oxo-2-((4-(2,3,9-trimethyl-6H-thieno[3,2-f][1,2,4]triazolo[4,3-a][1,4]diazepin-4-yl)phenyl)amino)ethoxy)acetamide] | 97.4 | 0.1 | – | – | – | – |
| CCC(=O)N1c2ccccc2[C@H](Nc2ccc(-c3nnc(CNC(=O)[C@H]4CC[C@H](N[C@@H]5C[C@H](C)N(C(=O)CC)c6ccccc65)CC4)o3)cc2)C[C@@H]1C [Compound 7q, (1R,4R)-4-(((2S,4R)-2-Methyl-1-propionyl-1,2,3,4-tetrahydroquinolin-4-yl)amino)-N-((5-(4-(((2S,4R)-2-methyl-1-propionyl-1,2,3,4-tetrahydroquinolin-4-yl)amino)phenyl)-1,3,4-oxadiazol-2-yl)methyl)cyclohexane-1-carboxamide] | – | – | 97.4 | 0.09 | 0.24 | – |
| CCC(=O)N1c2ccccc2[C@H](Nc2ccc(C(=O)N3CCn4c(-c5ccc(N[C@@H]6C[C@H](C)N(C(=O)CC)c7ccccc76)cc5)cnc4C3)cc2)C[C@@H]1C [Compound 3e, 1-[(2S,4R)-2-Methyl-4-({4-[3-(4-{[(2S,4R)-2-methyl-1-propionyl-1,2,3,4-tetrahydroquinolin-4-yl]amino}phenyl)-5,6,7,8-tetrahydroimidazo[1,2-a]pyrazine-7-carbonyl]phenyl}amino)-3,4-dihydroquinolin-1(2H)-yl]propan-1-one] | 98.3 | 0.1 | – | – | – | – |
| CCNC(=O)C[C@@H]1N=C(c2ccc(SCCCCSc3ccc(C4=N[C@@H](CC(=O)NCC)c5nnc(C)n5-c5ccc(OC)cc54)cc3)cc2)c2cc(OC)ccc2-n2c(C)nnc21 [compound 1, 2,2′-((4S,4'S)-6,6′-((butane-1,4-diylbis(sulfanediyl))bis(4,1-phenylene))bis(8-methoxy-1-methyl-4H-benzo[f][1,2,4]triazolo[4,3-a][1,4]diazepine-6,4-diyl))bis(N-ethylacetamide), reference compound] | – | – | 61.7 | 221 | 2560 | – |
| CCC(=O)N1c2ccccc2[C@H](Nc2ccc(NC(=O)C3CN(C(=O)c4ccc(N[C@@H]5C[C@H](C)N(C(=O)CC)c6ccccc65)cc4)C3)cc2)C[C@@H]1C (relative stereo) [Compound 2h, 1-(4-{[(2S,4R)-2-Methyl-1-propionyl-1,2,3,4-tetrahydroquinolin-4-yl]amino}benzoyl)-N-(4-{[(2S*,4R*)-2-methyl-1-propionyl-1,2,3,4-tetrahydroquinolin-4-yl]amino}phenyl)azetidine-3-carboxamide] | 98.2 | 0.03 | – | – | – | – |
| CCC(=O)N1c2ccccc2[C@H](Nc2ccc(-c3cnn(CCNC(=O)c4ccc(Cn5c(C(=O)OCCN(C)C)cc6c5CCCC6=O)cc4)c3)cc2)C[C@@H]1C [Compound 15d, 2-(Dimethylamino)ethyl 1-(4-((2-(4-(4-(((2S,4R)-2-methyl-1-propionyl-1,2,3,4-tetrahydroquinolin-4-yl)amino)phenyl)-1H-pyrazol-1-yl)ethyl)carbamoyl)benzyl)-4-oxo-4,5,6,7-tetrahydro-1H-indole-2-carboxylate] | 96.9 | 0.11 | – | – | – | – |
